Laboratory results reported in US20070275382A1, “Biomarkers for the Efficacy of Somatostatin Analogue Treatment” (priority 2003, published 2007).
*1 amine or outer side, *2 acyl side, *3 side chain or, on linkers, in order; H or OH if unused. Where a SMILES comes first, the peptide text is derived from it. Side-chain parts run from the residue outwards. [ ]: non-standard residue; d: D form. The star is where a group is joined. Ethylenediamine = C(CN[*:2])N[*:1]; Hyp = O=C(O)[CH]1C[CH](O)CN1; Phg = N[CH](C(=O)O)c1ccccc1; CO = O=C([*:1])[*:2]; Bn = c1ccc(C*)cc1

Test system: Pituitary gland
Assay: Microarray gene expression profiling (HG-U95A), pituitary
Type: in vivo, cynomolgus monkeys
Details: 100 μg/animal/day s.c., 14 days
Experimental: Origin of tissue and processing. Male and female cynomolgus monkeys received subcutaneously pasireotide (100 μg/animal/day) or the vehicle for 14 days. On day 15, all animals were sacrificed and tissues for RNA extraction were immediately snap-frozen and kept at −80° C. until processing.
RNA expression profiling was conducted by means of the HG-U95A gene expression probe array (Affymetrix; Santa Clara, Calif. USA), containing more than 12,600 probe sets interrogating primarily full-length human genes and also some control probe sets. The experiment was conducted according to the recommendations of the manufacturer. Briefly, total RNA was obtained by acid guanidinium thiocyanate-phenol-chloroform extraction (Trizol®, Invitrogen Life Technologies, San Diego, Calif. USA) from each frozen tissue section. The total RNA was then purified on an affinity resin (Rneasy®, Qiagen) and quantified. Double stranded cDNA was synthesized with a starting amount of approximately 5 μg full-length total RNA using the Superscript® Choice System (Invitrogen Life Technologies, Carlsbad, Calif. USA) in the presence of a T7-(dT)24 DNA oligonucleotide primer. Following synthesis, the cDNA was purified by phenol/chloroform/isoamyl alcohol extraction and ethanol precipitation. The purified cDNA was then transcribed in vitro using the BioArray® High Yield RNA Transcript Labeling Kit (ENZO, Farmingdale, N.Y. USA) in the presence of biotinylated ribonucleotides form biotin labelled cRNA. The labelled cRNA was then purified on an affinity resin (Rneasy®, Qiagen), quantified and fragmented. An amount of approximately 10 μg labelled cRNA was hybridized for 16 hours at 45° C. to an expression probe array. The array was then washed and stained twice with streptavidin-phycoerythrin (Molecular Probes,) using the GeneChip® Fluidics Workstation 400 (Affymetrix, Santa Clara, Calif. USA). The array was then scanned twice using a confocal laser scanner (GeneArray® Scanner, Agilent, Palo Alto, Calif. USA) resulting in one scanned image. This resulting “.dat-file” was processed using the MAS4 program (Affymetrix) into a “.cel-file”. The “.cel file” was captured and loaded into the Affymetrix GeneChip® Laboratory Information Management System (LIMS). The LIMS database is connected to a UNIX Sun Solaris server through a network filing system that allows for the average intensities for all probes cells (CEL file) to be downloaded into an Oracle database (NPGN). Raw data was converted to expression levels using a “target intensity” of 150. The data were evaluated for quality control and loaded in the GeneSpring® software 4.2.4 (Silicon Genetics, Calif. USA) for analysis.
On the human Affymetrix HGU95Av2 chip, probe sets for individual genes contain 20 oligonucleotide pairs, each composed of a “perfect match” 25-mer and a “mismatch” 25-mer differing from the “perfect” match oligonucleotide at a single base. After probe labelling, hybridization, and laser scanning, the expression level was estimated by averaging the differences in signal intensity measured by oligonucleotide pairs of a given probe (AvgDiff value). The fold changes and directions were calculated for selected genes, from the differences of the AvgDiff values between controls and treated.
To identify genes that were impacted by pasireotide, the dataset was initially filtered to exclude in a first wave of analysis, genes whose values were systematically in the lower expression ranges where the experimental noise is high (at least 80 in a number of experiments corresponding to the smallest number of replicas of any experimental point). In a second round of selection a threshold p-value of 0.05 (based on a t-test) identified differences between treated and control based on a two component error model (Global Error Model) and, whenever possible, with a stepdown correction for multi-hypothesis testing (Benjamini and Hochberg false discovery rate). […]

NCCCCC1NC(=O)C(Cc2c[nH]c3ccccc23)NC(=O)C(c2ccccc2)NC(=O)C2CC(OC(=O)NCCN)CN2C(=O)C(Cc2ccccc2)NC(=O)C(Cc2ccc(OCc3ccccc3)cc2)NC1=O (stereo not drawn) [Pasireotide, cyclo[4-(NH2—C2H4—NH—CO—O)Pro-Phg-DTrp-Lys-Tyr(4-Bzl)-Phe]] (cyclo(F[Hyp]([CO-Ethylenediamine])[Phg]WKY(Bn)); configuration not given here)
GFR bound protein 10 transcript fold change (↑ vs control): ↑ x1.5 | GLUR 2, precursor transcript fold change (↑ vs control): ↑ x1.5 | GTP-binding protein 11 transcript fold change (↑ vs control): 11 ↑ x2.5 | Glucagon receptor transcript fold change (↑ vs control): ↑ x7 | IFN stimulated gene transcript fold change (↑ vs control): ↑ x3.5 | IFNγ-inducible protein 30 (IP30) transcript fold change (↑ vs control): 30 (IP30) ↑ x1.5 | IGFBP, acid labile subunit transcript fold change (↑ vs control): subunit ↑ x3.5 | IP3 receptor, type 1 transcript fold change (↑ vs control): ↑ x1.5 | JAK 1 transcript fold change (↑ vs control): JAK 1 ↑ x2 | MAPKKK5 transcript fold change (↑ vs control): MAPKKK5 ↑ x2 | Neuroblastoma-amplified protein transcript fold change (↑ vs control): ↑ x1.5 | PKC inhibitor transcript fold change (↑ vs control): PKC inhibitor ↑ x2 | PP 1, regulatory (inhibitor) subunit 5 transcript fold change (↑ vs control): ↑ x3.5 | PTP, receptor type, T transcript fold change (↑ vs control): ↑ x2 | Programmed cell death 6 transcript fold change (↑ vs control): death 6 ↑ x1.5 | Putative Ca++ transporting ATPase transcript fold change (↑ vs control): ↑ x2 | RAB 5C, member RAS oncogene family transcript fold change (↑ vs control): ↑ x3 | Rab geranyltransferase, β subunit transcript fold change (↑ vs control): β subunit ↑ x2 | Receptor (calcitonin) activity modifying protein 2 precursor transcript fold change (↑ vs control): x3.5 | Receptor tyrosine kinase-like orphan receptor 2 transcript fold change (↑ vs control): receptor 2 ↑ x2 | Regulator of G-protein signalling 9 transcript fold change (↑ vs control): ↑ x2 | S-phase response (cyclin-related) transcript fold change (↑ vs control): (cyclin-related) ↑ x2 | SSTR3 transcript fold change (↑ vs control): SSTR3 ↑ x3 | Thyroid transcription factor 1 transcript fold change (↑ vs control): factor 1 ↑ x2.5 | VEGF B transcript fold change (↑ vs control): VEGF B ↑ x1.5 | 1-PI-4-phosphate 5-kinase isoform C transcript fold change (↓ vs control): kinase isoform C ↓ x1.5 | ATPase, H+/K+ exchanging, α polypeptide transcript fold change (↓ vs control): polypeptide ↓ x5 | Arg PTK-binding protein transcript fold change (↓ vs control): protein ↓ x2.5 | CD36 antigen transcript fold change (↓ vs control): CD36 antigen ↓ x2 | Catenin (cadherin-associated protein), α 1 (102 kD) transcript fold change (↓ vs control): α 1 (102 kD) ↓ x1.5 | Cholecystokinin receptor transcript fold change (↓ vs control): receptor ↓ x4.5 | Cholinergic receptor, muscarinic 3 transcript fold change (↓ vs control): muscarinic 3 ↓ x3 | Cholinergic receptor, nicotinic, β polypeptide 4 transcript fold change (↓ vs control): 4 ↓ x2 | Cyclin F transcript fold change (↓ vs control): Cyclin F ↓ x2 | Dual specificity phosphatase 8 transcript fold change (↓ vs control): phosphatase 8 ↓ x3 | EGFRBP 2 transcript fold change (↓ vs control): EGFRBP 2 ↓ x1.5 | FGFR 2 transcript fold change (↓ vs control): FGFR 2 ↓ x2 | Fms-related tyrosine kinase 1 (VEGF/vascular permeability factor receptor) transcript fold change (↓ vs control): receptor) ↓ x1.5 | Forkhead box O3A transcript fold change (↓ vs control): ↓ x1.5 | G-protein coupled receptor 49 transcript fold change (↓ vs control): receptor 49 ↓ x2 | GTP-binding protein (G protein), q polypeptide transcript fold change (↓ vs control): ↓ x2.5 | GTP-binding protein like-1 transcript fold change (↓ vs control): like-1 ↓ x3 | Gastrin receptor transcript fold change (↓ vs control): Gastrin receptor ↓ x2 | IFNR2 (α, β and ω) transcript fold change (↓ vs control): ↓ x2.5 | IGF-2 transcript fold change (↓ vs control): IGF-2 ↓ x1.5 | IP-4-phosphatase, type 1, isoform b transcript fold change (↓ vs control): type 1, isoform b ↓ x2 | K+ channel, subfamily K, member 3 (TASK) transcript fold change (↓ vs control): ↓ x4 | K+ voltage-gated channel, Shab-related subfamily, member 1 transcript fold change (↓ vs control): ↓ x2 | PDGFβ transcript fold change (↓ vs control): PDGFβ ↓ x2 | PI transfer protein, β transcript fold change (↓ vs control): ↓ x2.5 | PI-3-kinase, catalytic, α polypeptide transcript fold change (↓ vs control): α polypeptide ↓ x3 | PI-3-kinase, catalytic, δ polypeptide transcript fold change (↓ vs control): ↓ x2 | PLCγ 1 transcript fold change (↓ vs control): PLCγ 1 ↓ x1.5 | Phosphatase and tensin homolog (mutated in multiple advanced cancers 1) transcript fold change (↓ vs control): ↓ x3.5 | Rab3 GTPase-activating protein, non catalytic subunit transcript fold change (↓ vs control): catalytic subunit ↓ x2 | Rab geranylgeranyl transferase, α subunit transcript fold change (↓ vs control): ↓ x1.5 | SHB adaptor protein (a Src homology 2 protein) transcript fold change (↓ vs control): ↓ x2.5 | STAT 1, 91kδ transcript fold change (↓ vs control): STAT 1, 91kδ ↓ x2 | Soluble adenylyl cyclase transcript fold change (↓ vs control): cyclase ↓ x2 | TNFR subfamily, member 14; herpesvirus entry mediator transcript fold change (↓ vs control): entry mediator ↓ x2.5 | TNFR-associated factor 2 transcript fold change (↓ vs control): factor 2 ↓ x4 | Thrombospondin-p50 transcript fold change (↓ vs control): ↓ x2
